Laboratory results from patent publication US20140045873A1, “NOVEL MICROBIOCIDES” (SYNGENTA PARTICIPATIONS AG, priority 2010, published 2014).
Where two headings read alike, the source gives them in different places.

Experiments:
[1] = system: Thanatephorus cucumeris (Rhizoctonia solani); settings: read-out: control of Thanatephorus cucumeris (inhibition of growth, photometric)
[2] = system: Mycosphaerella arachidis (Cercospora arachidicola); assay: Mycosphaerella arachidis (Cercospora arachidicola) / liquid culture (early leaf spot); format: cell-based; settings: 200 ppm, liquid culture, PDB, 24° C., 4-5 days after application, read-out: control of Mycosphaerella arachidis (inhibition of growth, photometric)
Pythium ultimum = Pythium ultimum / liquid culture (seedling damping off); format: cell-based; settings: Globisporangium ultimum, potato dextrose broth, 24° C., 2-3 days after application, read-out: control of Pythium ultimum (inhibition of growth, photometric)
[3] = system: Puccinia recondita f. sp. tritici; settings: in Triticum aestivum, foliar, read-out: control of Puccinia recondita f. sp. tritici (percent disease control compared to untreated)
[4] = system: Puccinia recondita f. sp. tritici; settings: in Triticum aestivum, foliar, read-out: control of Puccinia recondita f. sp. tritici (percent disease control compared to untreated); remark: listed apart in the source
Pyrenophora teres = settings: in Hordeum vulgare, foliar, read-out: control of Pyrenophora teres (disease control compared to untreated)
[5] = system: Glomerella lagenarium (Colletotrichum lagenarium); assay: Glomerella lagenarium (Colletotrichum lagenarium) / liquid culture (anthracnose); format: cell-based; settings: Colletotrichum orbiculare; 200 ppm, liquid culture, PDB, 24° C., 3-4 days after application; read-out: control of Glomerella lagenarium (inhibition of growth, photometric)
Gaeumannomyces graminis = Gaeumannomyces graminis / liquid culture (take-all of cereals); format: cell-based; settings: 200 ppm, liquid culture, PDB, 24° C., 4-5 days after application, read-out: control of Gaeumannomyces graminis (inhibition of growth, photometric)
[6] = system: Mycosphaerella graminicola (Septoria tritici); assay: Mycosphaerella graminicola (Septoria tritici) / liquid culture (Septoria blotch); format: cell-based; settings: Zymoseptoria tritici; 200 ppm, liquid culture, PDB, 24° C., 4-5 days after application; read-out: control of Mycosphaerella graminicola (inhibition of growth, photometric)
[7] = system: Phaeosphaeria nodorum (Septoria nodorum); settings: Parastagonospora nodorum, in Triticum aestivum, foliar, read-out: control of Phaeosphaeria nodorum (percent disease control compared to untreated)
[8] = system: Monographella nivalis (Microdochium nivale); assay: Monographella nivalis (Microdochium nivale) / liquid culture (foot rot cereals); format: cell-based; settings: PDB, 24° C., 4-5 days after application, read-out: control of Monographella nivalis (inhibition of growth, photometric)
[9] = system: Botryotinia fuckeliana (Botrytis cinerea); assay: Botryotinia fuckeliana (Botrytis cinerea) / liquid culture (gray mould); format: cell-based; settings: Vogels broth, 24° C., 3-4 days after application, read-out: control of Botryotinia fuckeliana (inhibition of growth, photometric)
Source text: Botryotinia Fuckeliana (Botrytis cinerea)/Liquid Culture (Gray Mould): Conidia of the fungus from cryogenic storage were directly mixed into nutrient broth (Vogels broth). […].45

C/C(=N\OCCCc1cccc(-c2nc(C)cc(C)n2)n1)c1cccc(C)n1 [P.05]
≥ 80%: inhibition at 200 ppm [1] | inhibition at 200 ppm [2] | inhibition at 200 ppm (Pythium ultimum) | pest or weed control at 200 ppm [3] | pest or weed control at 200 ppm [4] | pest or weed control at 200 ppm (Pyrenophora teres) | inhibition at 200 ppm [5] | inhibition at 200 ppm (Gaeumannomyces graminis) | inhibition at 200 ppm [6] | pest or weed control at 200 ppm [7]

C/C(=N\OCCCc1cccc(-c2ccnc(C3CC3)n2)n1)c1cccc(C)n1 [P.07]
≥ 80%: inhibition at 200 ppm [8] | inhibition at 200 ppm [9] | inhibition at 200 ppm [1] | inhibition at 200 ppm [2] | pest or weed control at 200 ppm (Pyrenophora teres) | inhibition at 200 ppm [5] | inhibition at 200 ppm (Gaeumannomyces graminis) | inhibition at 200 ppm [6] | pest or weed control at 200 ppm [7]

C/C(=N\OCCCc1cccc(-c2cc(OCc3ccccc3)cc(C)n2)n1)c1cccc(C)n1 [P.15]
≥ 80%: inhibition at 200 ppm [8] | inhibition at 200 ppm [9] | inhibition at 200 ppm [1] | inhibition at 200 ppm [2] | pest or weed control at 200 ppm [3] | pest or weed control at 200 ppm [4] | pest or weed control at 200 ppm (Pyrenophora teres) | inhibition at 200 ppm [5] | inhibition at 200 ppm (Gaeumannomyces graminis) | inhibition at 200 ppm [6] | pest or weed control at 200 ppm [7]

C/C(=N\OCCCc1cccc(-c2cc(Br)cc(C)n2)n1)c1cccc(C)n1 [P.18]
≥ 80%: inhibition at 200 ppm [8] | inhibition at 200 ppm [2] | inhibition at 200 ppm (Pythium ultimum) | pest or weed control at 200 ppm [3] | pest or weed control at 200 ppm [4] | pest or weed control at 200 ppm (Pyrenophora teres) | inhibition at 200 ppm [5] | inhibition at 200 ppm (Gaeumannomyces graminis) | inhibition at 200 ppm [6] | pest or weed control at 200 ppm [7]

C/C(=N\OCCCc1cccc(-c2cc(C)cc(C)n2)n1)c1cccc(C)n1 [P.19]
≥ 80%: inhibition at 200 ppm [2] | inhibition at 200 ppm (Pythium ultimum) | pest or weed control at 200 ppm [3] | pest or weed control at 200 ppm [4] | pest or weed control at 200 ppm (Pyrenophora teres) | inhibition at 200 ppm (Gaeumannomyces graminis) | inhibition at 200 ppm [6] | pest or weed control at 200 ppm [7]

C#CCOc1cc(C)nc(-c2cccc(CCCO/N=C(\C)c3cccc(C)n3)n2)c1 [P.24]
≥ 80%: inhibition at 200 ppm [8] | inhibition at 200 ppm [9] | inhibition at 200 ppm [1] | inhibition at 200 ppm [2] | pest or weed control at 200 ppm [3] | pest or weed control at 200 ppm [4] | pest or weed control at 200 ppm (Pyrenophora teres) | inhibition at 200 ppm (Gaeumannomyces graminis) | inhibition at 200 ppm [6] | pest or weed control at 200 ppm [7]

C=CCOc1cc(C)nc(-c2cccc(CCCO/N=C(\C)c3cccc(C)n3)n2)c1 [P.25]
≥ 80%: inhibition at 200 ppm [8] | inhibition at 200 ppm [9] | inhibition at 200 ppm [1] | inhibition at 200 ppm [2] | inhibition at 200 ppm (Pythium ultimum) | pest or weed control at 200 ppm [3] | pest or weed control at 200 ppm [4] | pest or weed control at 200 ppm (Pyrenophora teres) | inhibition at 200 ppm [5] | inhibition at 200 ppm (Gaeumannomyces graminis) | inhibition at 200 ppm [6] | pest or weed control at 200 ppm [7]

CCCOc1cc(C)nc(-c2cccc(CCCO/N=C(\C)c3cccc(C)n3)n2)c1 [P.26]
≥ 80%: inhibition at 200 ppm [8] | inhibition at 200 ppm [9] | inhibition at 200 ppm [1] | inhibition at 200 ppm [2] | pest or weed control at 200 ppm [3] | pest or weed control at 200 ppm [4] | pest or weed control at 200 ppm (Pyrenophora teres) | inhibition at 200 ppm [5] | inhibition at 200 ppm (Gaeumannomyces graminis) | inhibition at 200 ppm [6] | pest or weed control at 200 ppm [7]

CCOc1cc(C)nc(-c2cccc(CCCO/N=C(\C)c3cc(C)cc(C)n3)n2)c1 [P.28]
≥ 80%: inhibition at 200 ppm [8] | inhibition at 200 ppm [9] | inhibition at 200 ppm [1] | inhibition at 200 ppm [2] | inhibition at 200 ppm (Pythium ultimum) | pest or weed control at 200 ppm [3] | pest or weed control at 200 ppm [4] | pest or weed control at 200 ppm (Pyrenophora teres) | inhibition at 200 ppm [5] | inhibition at 200 ppm (Gaeumannomyces graminis) | inhibition at 200 ppm [6] | pest or weed control at 200 ppm [7]

C=CCOc1cc(C)nc(-c2cccc(CCCO/N=C(\C)c3cc(C)cc(C)n3)n2)c1 [P.30]
≥ 80%: inhibition at 200 ppm [8] | inhibition at 200 ppm [9] | inhibition at 200 ppm [1] | inhibition at 200 ppm [2] | pest or weed control at 200 ppm [3] | pest or weed control at 200 ppm [4] | pest or weed control at 200 ppm (Pyrenophora teres) | inhibition at 200 ppm [5] | inhibition at 200 ppm (Gaeumannomyces graminis) | inhibition at 200 ppm [6] | pest or weed control at 200 ppm [7]

CCCOc1cc(C)nc(-c2cccc(CCCO/N=C(\C)c3cc(C)cc(C)n3)n2)c1 [P.31]
≥ 80%: inhibition at 200 ppm [8] | inhibition at 200 ppm [9] | inhibition at 200 ppm [1] | inhibition at 200 ppm [2] | pest or weed control at 200 ppm [3] | pest or weed control at 200 ppm [4] | pest or weed control at 200 ppm (Pyrenophora teres) | inhibition at 200 ppm [5] | inhibition at 200 ppm (Gaeumannomyces graminis) | inhibition at 200 ppm [6] | pest or weed control at 200 ppm [7]

CCc1cc(SC)c(C)c(-c2cccc(CCCO/N=C(\C)c3cccc(C)n3)n2)n1 [P.40]
≥ 80%: inhibition at 200 ppm [8] | inhibition at 200 ppm [9] | inhibition at 200 ppm [1] | inhibition at 200 ppm [2] | pest or weed control at 200 ppm [3] | pest or weed control at 200 ppm [4] | pest or weed control at 200 ppm (Pyrenophora teres) | inhibition at 200 ppm [5] | inhibition at 200 ppm (Gaeumannomyces graminis) | inhibition at 200 ppm [6] | pest or weed control at 200 ppm [7]

C/C(=N\OCCCc1ccnc(-c2cccc(C)n2)n1)c1cccc(C)n1 [P.45, E-1-(6-methyl-2-pyridyl)-N-[3-[2-(6-methyl-2-pyridyl)pyrimidin-4-yl]propoxy]ethanimine]
≥ 80%: inhibition at 200 ppm [8] | inhibition at 200 ppm [9] | inhibition at 200 ppm [1] | inhibition at 200 ppm [2] | inhibition at 200 ppm (Pythium ultimum) | pest or weed control at 200 ppm [3] | pest or weed control at 200 ppm [4] | pest or weed control at 200 ppm (Pyrenophora teres) | inhibition at 200 ppm [5] | inhibition at 200 ppm [6] | pest or weed control at 200 ppm [7]
